# Target: T1, chimeric estrogen receptor containing hERαLBD and LexA DBD (Homo sapiens, UniProt P03372)
# T1 construct: expressed in transfected cells; host or cells: transgenic Arabidopsis thaliana (Columbia), Agrobacterium C58-mediated transformation, CaMV 35S promoter
# Assay type: in vivo
# Details: T2 seeds on MS agar medium, grown for a week; FIG. 6
# Experimental: Seeds of T3 were sown on a MS agar medium containing 17β-estradiol (WAKO Pure Chemical Inds.). The expression of GUS gene was examined by GUS activity staining method and GUS activity assay method by the use of a transformed plant grown for a week.
# The induction of reporter gene expression by estrogen in transformed Arabidopsis thaliana was performed by the following procedures. […] After that the transformed Arabidopsis thaliana was sprouted and grown in a bright place at 22° C. for specified days for the continuous exposure to estrogen.
# The Gus activity assay method was performed in the following way. […] Twenty plants treated with estrogen were frozen in liquid nitrogen and were crushed into powder by a homogenizer. Then, the extraction buffer (50 mM NaH2PO4, 10 mM EDTA, 0.1% Triton-X-100, 0.1% N-sodium lauroyl sarcosinate, 10 mM β-mercaptoethanol) was added and soluble protein was extracted. 4-methylumbelliferyl-β-D-glucronide (4-MUG) was used for a substrate of GUS activity assay. The extracted protein solution was added with extraction buffer containing final 1 mM 4-MUG and was reacted at 37° C. for 1 hr. […] Also, protein concentration in the solution was measured and measured values obtained by fluorescent spectroscopy were standardized by the correction depending on the total protein in the protein solution. […]
# T1 sequence (P0A7C2 1-87, change not shown): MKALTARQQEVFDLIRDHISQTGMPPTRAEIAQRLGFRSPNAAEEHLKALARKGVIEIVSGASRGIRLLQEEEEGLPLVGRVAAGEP
# T1 sequence (P03372 311-547, change not shown): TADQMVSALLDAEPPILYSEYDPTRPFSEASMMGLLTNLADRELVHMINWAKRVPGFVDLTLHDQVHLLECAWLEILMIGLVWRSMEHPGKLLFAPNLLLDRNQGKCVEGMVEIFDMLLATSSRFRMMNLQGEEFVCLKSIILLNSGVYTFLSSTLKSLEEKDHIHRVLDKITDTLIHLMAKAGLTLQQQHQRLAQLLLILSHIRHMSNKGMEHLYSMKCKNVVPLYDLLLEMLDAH
# T1 sequence (Q15596 624-869, change not shown, further chain): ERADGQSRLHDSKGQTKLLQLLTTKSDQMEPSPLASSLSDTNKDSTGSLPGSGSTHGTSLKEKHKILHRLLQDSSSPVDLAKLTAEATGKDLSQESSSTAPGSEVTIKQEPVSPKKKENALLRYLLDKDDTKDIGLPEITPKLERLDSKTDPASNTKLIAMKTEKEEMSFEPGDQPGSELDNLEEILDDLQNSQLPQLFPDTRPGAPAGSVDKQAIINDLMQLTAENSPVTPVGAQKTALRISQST
# T1 sequence (P06492 413-490, change not shown, further chain): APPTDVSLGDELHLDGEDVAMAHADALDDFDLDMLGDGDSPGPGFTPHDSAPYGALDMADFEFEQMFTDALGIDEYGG
smiles,measurement,value
"CC(C)(c1ccc(O)cc1)c1ccc(O)cc1 [BPA, bisphenol A]",concentration from which expression of GUS gene responds / increases,> 100 nM
same,optimal concentration for the expression of GUS gene,100 nM

# — US20080199858A1, “Method for Detecting Estrogen-Like Chemicals by Plant” (priority 2004, published 2008)
